Laboratory results taken from patent publication US7399608B2, “Microbial detection and quantification” (Kimberly-Clark Worldwide, Inc., priority 2003, dated 2008).

Assays:
[1] = system: bacteria from aged chicken juice; experiment: Reichardt's dye indicator spray on surfaces contaminated with aged chicken; details: for false-positive test: chicken broth versus aged chicken juice: 160 mg in 10 ml isopropanol
[2] = system: bacteria in aged chicken juice; experiment: Dried dye coating on ceramic surface with or without TWEEN 80, aged chicken juice; details: 80 mg/10 mL acetonitrile with 200 μL TWEEN 80, dried on ceramic, drop of aged chicken juice
Text: This solution was then used to coat a ceramic surface (FIG. 11) and allowed to air dry. […] After drying, a drop of aged chicken juice known to have a high bacterial count was placed on the each coating area (11B). […] Furthermore, the addition of TWEEN® surfactant allowed for easy removal of the dye from the surface.

S. aureus [3] = experiment: De-colorization of Reichardt's dye-coated paper and stickers by bacteria; parameters: species or system Staphylococcus aureus
Method: This experiment tested the ability of a surface coating of Reichardt's dye to respond to bacterial contamination. […] To this paper was added 100 μL aliquots of 10^7, 10^6, 10^5, and 10^4 CFU/mL E. coli or S. aureus solutions (8B). Water was used as a negative control. […] It was later determined that while both bacteria solutions were indeed at 10^7 CFU/mL concentrations, the actual concentration of the S. aureus solution was 7×10^7 CFU/mL compared to 1×10^7 CFU/mL for the E. coli solution.
A sheet of paper self-adhesive stickers (Avery-Dennison) was also brush-coated with two different concentrations of Reichardt's dye solution (160 mg/10 mL acetonitrile, 80 mg/10 mL acetonitrile). The stickers were applied to the lid and latch mechanism of a Huggies® Wet Wipes box. A gloved hand was used to transfer 10^7 CFU/mL S. aureus to the surface of the stickers. […] The sticker could provide a means for easy and rapid detection of bacterial contamination for a variety of applications.

E. coli [4] = experiment: Titration of substrate-bound microorganism with Reichardt's dye solution; parameters: species or system Escherichia coli; details: 160 mg in 10 ml acetonitrile, 10 μl aliquots; 100 μl of 10^7 CFU/ml on towel
[5] = Effect of acid and strong base on Reichardt's dye de-colorization; assay type: physicochemical
Text: This was repeated with another area.

[6] = system: microbes on computer keyboard; experiment: Indicator spray on computer keyboard
Method: Reichardt's dye was dissolved in isopropanol (160 mg in 10 mL of isopropanol) and attached to an aerosol-based spray device. The keyboard was then sprayed with the indicator solution (10B).

S. aureus [7] = experiment: Solvent choice for Reichardt's dye coatings on SCOTT towels; parameters: species or system Staphylococcus aureus; details: coated SCOTT towel, 100 μl aliquots of S. aureus
Method: Solutions of Reichardt's dye in acetonitrile, isopropanol, and xylenes were prepared and the solutions were used to coat SCOTT® kitchen rolls towels and allowed to air-dry (FIGS. 12A and 12D).

Bleach indicator test = assay type: physicochemical; details: mixture with TMB coated on SCOTT towel
E. coli [8] = experiment: Towel coated with Reichardt's dye and TMB exposed to bacteria; parameters: species or system Escherichia coli; details: E. coli suspension drop-wise
Rhinovirus = experiment: Virus detection with Reichardt's dye
[9] = system: Herpes Simplex Virus 1 (HSV-1); experiment: Virus detection with Reichardt's dye-coated stickers; details: 50-microliter droplet, 3 minutes
Influenza A = experiment: as above
measles = experiment: as above
S. aureus [10] = experiment: Semi-quantification of bacterial contamination on dye-treated paper; parameters: species or system Staphylococcus aureus
Method: The color differences at lower concentrations were less distinct, particularly for the brush-coated sheet. A blind study was then conducted. […] Concentrations of these three drops were unknown to two of the experiment participants. After approximately 2 minutes, the drops were removed and blotted. Using the control regions, the concentrations of each sample were each visually estimated by these two persons. Both persons correctly estimated the concentration of the first sample to be 10^6 CFU/mL. […] The persons, however, incorrectly estimated the third sample to be 10^3 CFU/mL. […] The present inventors believe, however, that the concentration of the chromogen and uniformity of the coating may be readily selected to achieve accurate results at such low concentrations.

P. aeruginosa = experiment: Quantification of bacterial contamination by Delta E (hand-held spectrophotometer); parameters: species or system Psuedomonas aeruginosa; details: label substrate, log CFU/ml (actual) 6
Text: More specifically, indicator strips coated with Reichardt's dye were exposed with decreasing amounts of the bacteria aliquots. A hand-held spectrophotometer was used to after application of each aliquot to determine “Delta E” value (calculated using L*, A*, and B* values) for each CFU/mL concentration. The results are set forth below in Table 4 (for paper) and Table 5 (for label). From the above, standard detection curves were generated as shown in FIGS. 5-7 for S. aureus, P. aeruginosa, and E. coli, respectively. As shown, each type of bacteria changed the color of the dye-treated substrate in a slightly different way, creating a unique standard curve. Thereafter, drops of unknown bacteria concentrations were placed on the stickers and a spectrophotometer was used to measure the “Delta E” of the resulting color. The numerical values obtained for each unknown sample set forth below in Tables 6-7. […] Although a few of the results were not completely accurate, the present inventors believe that improving the uniformity of the coating would further enhance detection accuracy.

[11] = system: bacteria in aged chicken juice; experiment: Dye solution dropped onto aged chicken juice on SCOTT paper towel (comparative examples); details: 100 mg suspended in 10 ml acetonitrile, dropped onto aged chicken juice on SCOTT paper towel
[12] = 160 mg in 10 ml acetonitrile dried on SCOTT towel

Compound: [O-]c1c(-c2ccccc2)cc(-[n+]2c(-c3ccccc3)cc(-c3ccccc3)cc2-c2ccccc2)cc1-c1ccccc1 [Reichardt's dye, 2,6-diphenyl-4-(2,4,6-triphenylpyridinio)-phenolate]
- color change of indicator spray on area contacted by aged chicken ([1]; 160 mg in 10 mL acetonitrile, sprayed on ceramic plate): decolorized
- color change of indicator spray on contaminated doorknob ([1]; 160 mg in 10 mL isopropanol, plastic doorknob marked with aged chicken juice): de-colorization of the Reichardt's dye from blue to colorless
- false-positive test: chicken broth versus aged chicken juice ([1]; ceramic surface): only the side containing the aged chicken juice (and thus bacteria) was de-colorized
- false-positive test: chicken broth versus aged chicken juice ([1]; hot plate surface): only the side containing the aged chicken juice (and thus bacteria) was de-colorized
- de-colorization after cleaning guided by the spray ([1]; isopropanol spray, ceramic surface cleaned again with 60% ethanol antiseptic): no de-colorization took place
- de-colorization faster with TWEEN 80 surfactant than without [2]: 20 to 30 s
- de-colorization time (S. aureus [3]; paper brush-coated with 80 mg/10 mL acetonitrile, 100 μL of 10^7 to 10^4 CFU/mL): < 1 min
- de-colorization of coated stickers (S. aureus [3]; stickers coated with 160 or 80 mg/10 mL acetonitrile, 10^7 CFU/mL transferred by gloved hand): rapidly de-colorized
- Amount of Dye Required for Persistent Color (E. coli [4]): 80 µL
- effect of 1 N NaOH on acid-decolorized dye spots [5, 12]: rapid re-colorization
- effect of acetic acid and Aldrich buffer pH 2.0 on dried dye spots [5, 12]: rapid de-colorization
- effect of 1 N NaOH on dye decolorized by aged chicken juice ([5]; indicator spray 160 mg in 10 ml acetonitrile, hot plate surface): re-colorization of that small spot
- de-colorization of spray on old computer keyboard [6]: rapid de-colorization of the dye in certain areas
- color change of coating made from acetonitrile solution (S. aureus [7]): rapid de-colorization
- color change of coatings made from isopropanol and xylenes solutions (S. aureus [7]): No visible color change
- response of Reichardt's dye to dilute bleach (Bleach indicator test): de-colorizing
- time to decolorize to a white spot (E. coli [8]): less than 10 seconds
- dye added until the color persisted (Rhinovirus; 80 milligrams/10 milliliters acetonitrile with or without TWEEN 80, 100-microliter drop of undiluted virus on SCOTT towel): approximately 9 drops
- lowest ten-fold dilution at which stickers changed color (Rhinovirus; virus diluted serially in saline, 50-microliter aliquots, 3 minutes): 10^−6
- de-colorization of sticker by undiluted virus [9]: stronger de-colorization of the sticker than that observed for Rhinovirus and Polio virus
- de-colorization of sticker by undiluted virus (Influenza A): less than that observed for the other viruses
- de-colorization of sticker by undiluted virus (measles): less than that observed for the other viruses
- visually estimated concentration, blind study third sample (S. aureus [10]; actual 10^4 CFU/mL, dip-coated sheet): 10^3 CFU/mL
- visually estimated concentration, blind study second sample (S. aureus [10]; actual 10^5 CFU/mL, brush-coated sheet): 10^5 CFU/mL
- visually estimated concentration, blind study first sample (S. aureus [10]; actual 10^6 CFU/mL, dip-coated sheet): 10^6 CFU/mL
- Delta E, unknown sample (P. aeruginosa): 4.1002
- color change on aged chicken juice (control) [11]: immediately decolorized
